Measured values taken from PubChem BioAssay AID330 (DTP/NCI, 2004).
Several values for one entry are separate records, joined by “and”; a condition that tells them apart may be missing. Equal entries are not always repeated. Inconclusive results and toxic doses are left out. How the source made its calls: active means survival T/C of 150% or more; inactive means T/C below 125% in these data.

Test system: P388 leukemia ip, CD2F1 mice, survival T/C
Test: NCI In Vivo Anticancer Drug Screen. Data for tumor model P388 Leukemia (intraperitoneal) in CD2F1 (CDF1) mice
Conditions: endpoint: median survival time, higher = longer survival
Outline: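 Mice carrying the transplanted tumor received test compound or vehicle. Survival was recorded in each group, and the value is the treated-group measurement divided by that of the vehicle-treated control group.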

[1] = dose: 100.0 mg/kg/injection, schedule: Q01DX009 (ip), vehicle: saline with Tween-80
[2] = dose: 200.0 mg/kg/injection, schedule: Q01DX009 (ip), vehicle: saline with Tween-80
[3] = dose: 50.0 mg/kg/injection, schedule: Q01DX009 (ip), vehicle: saline with Tween-80
[4] = dose: 12.5 mg/kg/injection, schedule: Q01DX009 (ip), vehicle: water
[5] = dose: 12.5 mg/kg/injection, schedule: Q01DX009 (ip), vehicle: saline with Tween-80
[6] = dose: 25.0 mg/kg/injection, schedule: Q01DX009 (ip), vehicle: saline with Tween-80

Measured: T/C

COc1cc(CC2COC(O)C2(O)Cc2ccc(O)c(OC)c2)ccc1O (stereo not given)
inactive: dose: 8.25 mg/kg/injection, schedule: Q01DX005 (ip), vehicle: Klucel (hydroxypropylcellulose) (HPC) 101 % of control | dose: 16.5 mg/kg/injection, schedule: Q01DX005 (ip), vehicle: Klucel (hydroxypropylcellulose) (HPC) 101 % of control | dose: 33.0 mg/kg/injection, schedule: Q01DX005 (ip), vehicle: Klucel (hydroxypropylcellulose) (HPC) 106 % of control | dose: 66.0 mg/kg/injection, schedule: Q01DX005 (ip), vehicle: Klucel (hydroxypropylcellulose) (HPC) 92 % of control

CC1CN(C)CCN1C (stereo not given)
inactive: [1] 100 % of control | [2] 100 % of control | dose: 400.0 mg/kg/injection, schedule: Q01DX009 (ip), vehicle: saline with Tween-80 95 % of control

CO[Si](CCCN)(OC)OC
inactive: dose: 50.0 mg/kg/injection, schedule: Q01DX009 (ip), vehicle: saline 119 % of control | dose: 100.0 mg/kg/injection, schedule: Q01DX009 (ip), vehicle: saline 105 % of control | dose: 200.0 mg/kg/injection, schedule: Q01DX009 (ip), vehicle: saline 110 % of control

CC(C)COC(=O)NC(C(=O)N(C(=O)NC1CCCCC1)C1CCCCC1)C(C)C (stereo not given)
inactive: dose: 50.0 mg/kg/injection, schedule: Q01DX005 (ip), vehicle: Klucel (hydroxypropylcellulose) (HPC) 100 % of control | dose: 100.0 mg/kg/injection, schedule: Q01DX005 (ip), vehicle: Klucel (hydroxypropylcellulose) (HPC) 95 % of control | dose: 200.0 mg/kg/injection, schedule: Q01DX005 (ip), vehicle: Klucel (hydroxypropylcellulose) (HPC) 95 % of control

O=C1N=C2SCCN2C(=O)C1Nc1ccc(Cl)cc1 (stereo not given)
inactive: dose: 100.0 mg/kg/injection, schedule: Q04DX002 (ip), vehicle: saline with Tween-80 99 % of control | dose: 200.0 mg/kg/injection, schedule: Q04DX002 (ip), vehicle: saline with Tween-80 100 % of control | dose: 400.0 mg/kg/injection, schedule: Q04DX002 (ip), vehicle: saline with Tween-80 98 % of control

Cc1ccccc1OCC1COCN(C(C)(C)C)CO1 (stereo not given)
inactive: dose: 60.0 mg/kg/injection, schedule: Q01DX005 (ip), vehicle: saline with Tween-80 100 % of control | dose: 120.0 mg/kg/injection, schedule: Q01DX005 (ip), vehicle: saline with Tween-80 107 % of control | dose: 240.0 mg/kg/injection, schedule: Q01DX005 (ip), vehicle: saline with Tween-80 102 % of control

c1cc(-c2nnc3ccccn23)c2c(-c3nnc4ccccn34)cccc2c1
inactive: [3] 100 % of control | [1] 97 % of control | [2] 97 % of control

CC(=O)Nc1cccn(C)c1=O
inactive: dose: 6.25 mg/kg/injection, schedule: Q01DX009 (ip), vehicle: distilled water + Tween-80 100 % of control | dose: 12.5 mg/kg/injection, schedule: Q01DX009 (ip), vehicle: distilled water + Tween-80 100 % of control | [4] 98 % of control | dose: 25.0 mg/kg/injection, schedule: Q01DX009 (ip), vehicle: distilled water + Tween-80 102 % of control | dose: 25.0 mg/kg/injection, schedule: Q01DX009 (ip), vehicle: water 123 % of control | dose: 50.0 mg/kg/injection, schedule: Q01DX009 (ip), vehicle: distilled water + Tween-80 107 % of control | dose: 50.0 mg/kg/injection, schedule: Q01DX009 (ip), vehicle: water 112 % of control | dose: 100.0 mg/kg/injection, schedule: Q01DX009 (ip), vehicle: distilled water + Tween-80 120 % of control | dose: 100.0 mg/kg/injection, schedule: Q01DX009 (ip), vehicle: water 113 % of control | dose: 200.0 mg/kg/injection, schedule: Q01DX009 (ip), vehicle: water 112 % of control

O=C(O)CCCc1cc(I)c(N(CCCl)CCCl)c(I)c1
inactive: [5] 121 % of control | [6] 107 % of control | [3] 121 % of control

CC1=C(O)c2ccccc2C(=O)C1=O
inactive: [5] 101 % of control | [6] 113 % of control and 90 % of control | [3] 105 % of control and 116 % of control | [1] 92 % of control | [2] 90 % of control

CC(=O)ON1C(=O)C=CC1=O
inactive: dose: 0.78 mg/kg/injection, schedule: Q01DX009 (ip), vehicle: water 109 % of control | dose: 1.56 mg/kg/injection, schedule: Q01DX009 (ip), vehicle: water 101 % of control | dose: 3.13 mg/kg/injection, schedule: Q01DX009 (ip), vehicle: water 104 % of control and 87 % of control | dose: 6.25 mg/kg/injection, schedule: Q01DX009 (ip), vehicle: water 104 % of control and 86 % of control | [4] 109 % of control and 90 % of control
